Reference: patent publication US20120157448A1, “COMPOUNDS FOR TREATING NEURODEGENERATIVE DISEASES” (priority 2010, published 2012)
Where two headings read alike, the source gives them in different places.

Biological target: T1, BACE-1 (Homo sapiens, UniProt P56817)
T1 construct: endogenous in cells; host or cells: HEK-293 cells stably transfected with wild type APP695
Assay: Cellular BACE-1 inhibition assay (in vitro cellular Amyloidβ 1-40 production, HTRF immunoassay)
Type: cell-based
Method: Materials and Methods: HEK-293 cells stably transfected with a DNA construct containing the coding sequence for the wild type APP695 sequence were grown in Dulbecco's Modified Eagle Medium (“DMEM”) supplemented with 10% fetal bovine serum, penicillin/streptomycin and 150 μg/mL G418. Cells were plated in 96-well plates at 35,000 cells/well and allowed to attach for 8-12 hours. Media was changed to DMEM supplemented with 10% fetal bovine serum, penicillin/streptomycin 15 minutes prior to compound addition. Diluted compounds were then added at a final concentration of 0.5% DMSO. After 48 hours, 4 μL of media from each well was added to a corresponding well of a 384 well plate (Perkin Elmer Cat#6008280) containing the HTRF reagents. HTRF reagents were obtained from the CisBio Amyloid β 1-40 peptide assay kit (Cat#62B40PEC) and were prepared as follows anti-peptide β (1-40)-Cryptate and anti-peptide […] were stored in 2 plate aliquots at −80° C. Diluent and Reconstitution buffer were stored at 4° C. Aliquots of the two antibodies were diluted 1:100 with Reconstitution buffer, and this mixture was diluted 1:2 with Diluent. 12 μL of the reagent mixture was added to the required wells of the 384 well assay plate. The assay plate was incubated at 4° C. for 17 hours and then analyzed for fluorescence at 665 and 620 nm. The following compounds were tested in the above assay. Some compounds were tested more than once, and the average is reported below.

[1] = inhibition of Amyloidβ 1-40 production, HEK-293 cells stably transfected with wild type APP695, 48 hours incubation, average where tested more than once, read-out: IC50

T1 sequence (P56817 46-501): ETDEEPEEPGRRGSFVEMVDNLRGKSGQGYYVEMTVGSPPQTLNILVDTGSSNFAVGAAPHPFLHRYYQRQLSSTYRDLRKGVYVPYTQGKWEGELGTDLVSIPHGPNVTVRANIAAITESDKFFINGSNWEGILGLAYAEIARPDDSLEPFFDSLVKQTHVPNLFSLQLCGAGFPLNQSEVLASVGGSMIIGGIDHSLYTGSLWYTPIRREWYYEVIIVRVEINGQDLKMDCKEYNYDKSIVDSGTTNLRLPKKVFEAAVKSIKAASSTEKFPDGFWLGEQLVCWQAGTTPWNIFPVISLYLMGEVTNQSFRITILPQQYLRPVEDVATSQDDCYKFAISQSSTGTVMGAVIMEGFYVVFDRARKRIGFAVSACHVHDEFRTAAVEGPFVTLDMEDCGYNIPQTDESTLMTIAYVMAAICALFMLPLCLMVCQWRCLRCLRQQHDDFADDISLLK

Structure (SMILES)	IC50 [1] [nM]	IC50 [nM]
NC1=NC2(CO1)c1cc(-c3cccnc3F)ccc1OC1CCC(O)C[C@@H]12 (stereo in doubt) [Example 31, (4a′S*,9a′R*)-2-amino-7′-(2-fluoropyridin-3-yl)-1′,2′,3′,4′,4a′,9a′-hexahydro-5H-spiro[oxazole-4,9′-xanthen]-2′-ol]	47.3	–
NC1=N[C@]2(CO1)c1cc(-c3cncc(Cl)c3)ccc1OC1CC[C@H](OCC3CC3)C[C@@H]12 (relative stereo) [Example 29, (4S*,4a′S*,9a′R*)-7′-(5-chloropyridin-3-yl)-2′-(cyclopropylmethoxy)-1′,2′,3′,4′,4a′,9a′-hexahydro-5H-spiro[oxazole-4,9′-xanthen]-2-amine]	8.9	–
CC(C)O[C@H]1CCC2Oc3ccc(-c4cccnc4F)cc3C3(COC(N)=N3)[C@H]2C1 (stereo partly drawn) [Example 155, (2′S,4a′S,9aR)-7′-(2-fluoropyridin-3-yl)-2′-isopropoxy-1′,2′,3′,4′,4a′,9a′-hexahydro-5H-spiro[oxazole-4,9′-xanthen]-2-amine]	71.4	–
NC1=NC2(CO1)c1cc(-c3cncnc3)ccc1OC1CCC(O)C[C@@H]12 (stereo in doubt) [Example 32, (4a′S*,9a′R*)-2-amino-7′-(pyrimidin-5-yl)-1′,2′,3′,4′,4a′,9a′-hexahydro-5H-spiro[oxazole-4,9′-xanthen]-2′-ol]	118	–
NC1=NC2(CO1)c1cc(-c3cncc(Cl)c3)ccc1OC1CCCCC12 (racemic) [Example 9, 7′-(5-chloropyridin-3-yl)-1′,2′,3′,4′,4a′,9a′-hexahydro-5H-spiro[oxazole-4,9′-xanthen]-2-amine]	43.4	–
NC1=N[C@@]2(CO1)c1cc(-c3cncc(Cl)c3)ccc1OC1CC[C@H](OCC3CC3)C[C@@H]12 (relative stereo) [Example 28, (4R*,4a′S*,9a′R*)-7′-(5-chloropyridin-3-yl)-2′-(cyclopropylmethoxy)-1′,2′,3′,4′,4a′,9a′-hexahydro-5H-spiro[oxazole-4,9′-xanthen]-2-amine]	7.8	–
Cc1nc(C(=O)Nc2ccc3c(c2)C2(COC(N)=N2)C2CCCCC2O3)co1 (single isomer, unassigned) [Example 14, N-(2-amino-1′,2′,3′,4′,4a′,9a′-hexahydro-5H-spiro[oxazole-4,9′-xanthene]-7′-yl)-2-methyloxazole-4-carboxamide]	73.5	–
NC1=N[C@@]2(CO1)c1cc(-c3cccnc3F)ccc1O[C@H]1CCN(C(=O)CC3CC3)C[C@@H]12 (relative stereo) [Example 218, 1-((4aS*,4′R*,10aR*)-2′-amino-8-(2-fluoropyridin-3-yl)-1,4,4a,10a-tetrahydro-5′H-spiro[chromeno[3,2-c]pyridine-10,4′-oxazol]-2(3H)-yl)-2-cyclopropylethanone]	457	–
CCOCC1CCC2Oc3ccc(-c4cncc(Cl)c4)cc3C3(COC(N)=N3)[C@H]2O1 (stereo in doubt) [Example 98, (4a′S*,10a′R*)-8′45-chloropyridin-3-yl)-2′-(ethoxymethyl)-3′,4′,4a′,10a′-tetrahydro-2H,5H-spiro[oxazole-4,10′-pyrano[3,2-b]chromen]-2-amine]	421	–
NC1=N[C@@]2(CO1)c1cc(-c3cncnc3)ccc1O[C@H]1CC[C@H](OCC3CC3)C[C@@H]12 [Example 150, (2′S,4R,4a′S,9a′R)-2′-(cyclopropylmethoxy)-7′-(pyrimidin-5-yl)-1′,2′,3′,4′,4a′,9a′-hexahydro-5H-spiro[oxazole-4,9′-xanthen]-2-amine]	100	–
NC1=NC2(CO1)c1cc(-c3cccnc3F)ccc1OC1CCN(C(=O)OCc3ccccc3)C[C@@H]12 (mixture of isomers) [Example 5, rac-trans-(4a,10a)-benzyl 2′-amino-8-(2-fluoropyridin-3-yl)-1,4,4a,10a-tetrahydro-5′H-spiro[chromeno[3,2-c]pyridine-10,4′-oxazole]-2(3H)-carboxylate]	133	–
Cc1nc(C(=O)Nc2ccc3c(c2)C2(COC(N)=N2)[C@@H]2CCCCC2O3)co1 (single isomer, unassigned) [Example 15, N-(2-amino-1′,2′,3′,4′,4a′,9a′-hexahydro-5H-spiro[oxazole-4,9′-xanthene]-7′-yl)-2-methyloxazole-4-carboxamide]	58.7	–
NC1=NC2(CO1)c1cc(-c3cncc(Cl)c3)ccc1OC1CCC(F)CC12 (stereo not drawn) [Example 27, 7′-(5-chloropyridin-3-yl)-2′-fluoro-1′,2′,3′,4′,4a′,9a′-hexahydro-5H-spiro[oxazole-4,9′-xanthen]-2-amine]	64.2	–
NC1=NC2(CO1)c1cc(-c3cncc(Cl)c3)ccc1O[C@H]1CCC(O)C[C@H]12 (stereo partly drawn) [Example 48, (4a′S,9a′S)-2-amino-7′-(5-chloropyridin-3-yl)-1′,2′,3′,4′,4a′,9a′-hexahydro-5H-spiro[oxazole-4,9′-xanthen]-2′-ol]	2550	–
C[C@H]1OCCC2Oc3ccc(-c4cncc(Cl)c4)cc3[C@@]3(COC(N)=N3)[C@@H]21 (relative stereo) [Example 90, (1′R*4R*,4a′R*,10a′R*)-8′-(5-chloropyridin-3-yl)-1′-methyl-3′,4′,4a′,10a′-tetrahydro-1′H,5H-spiro[oxazole-4,10′-pyrano[4,3-b]chromen]-2-amine]	1340	–
NC1=NC2(CO1)c1cc(-c3cncnc3)ccc1OC1CCCCC12 (single isomer, unassigned) [Example 12, 7′-(pyrimidin-5-yl)-1′,2′,3′,4′,4a′,9a′-hexahydro-5H-spiro[oxazole-4,9′-xanthen]-2-amine]	60.7	–
NC1=NC2(CO1)c1cc(-c3cccnc3F)ccc1OC1CCN(CC(F)(F)F)C[C@@H]12 (mixture of isomers) [Example 44, rac-trans-(4a,10a)-8-(2-fluoropyridin-3-yl)-2-(2,2,2-trifluoroethyl)-1,2,3,4,4a,10a-hexahydro-5′H-spiro[chromeno[3,2-c]pyridine-10,4′-oxazol]-2′-amine]	304	–
CC(C)CS(=O)(=O)N1CC[C@@H]2Oc3ccc(-c4cccnc4F)cc3[C@]3(COC(N)=N3)[C@H]2C1 (single isomer, unassigned) [Example 120]	41	–
N#Cc1cc(Cl)cc(-c2ccc3c(c2)[C@@]2(COC(N)=N2)[C@H]2C[C@@H](OC4CCC4)CC[C@@H]2O3)c1 [Example 156, 3-((2′S,4R,4a′S,9a′R)-2-amino-2′-cyclobutoxy-1′,2′,3′,4′,4a′,9a′-hexahydro-5H-spiro[oxazole-4,9′-xanthen]-7′-yl)-5-chlorobenzonitrile]	92.8	–
C[C@@]12CCOC[C@H]1C1(COC(N)=N1)c1cc(-c3cccnc3F)ccc1C2 (relative stereo) [Example 118, (4aR*,10aR*)-8-(2-fluoropyridin-3-yl)-4a-methyl-1,3,4,4a,5,10a-hexahydro-5′H-spiro[benzo[g]isochromene-10,4′-oxazol]-2′-amine]	–	219
CN1C(=O)CC2(N=C1N)c1cc(-c3cc(F)cc(Cl)c3)ccc1OC1CC3(CCC12)OCCO3 (stereo not drawn) [Example 3, 2″-amino-7′-(3-chloro-5-fluorophenyl)-1″-methyl-2′,4′,4′a,5″,6″,9′a-hexahydro-1′H,1″H-dispiro[1,3-dioxolane-2,3′-xanthene-9′,4″-pyrimidine]-6″-one]	3080	–
NC1=NC2(CO1)c1cc(-c3cccnc3F)ccc1OC1CCNC[C@@H]12 (mixture of isomers) [Example 41, rac-trans-(4a,10a)-8-(2-fluoropyridin-3-yl)-1,2,3,4,4a,10a-hexahydro-5′H-spiro[chromeno[3,2-c]pyridine-10,4′-oxazol]-2′-amine]	1330	–
N#Cc1cc(Cl)cc(-c2ccc3c(c2)[C@@]2(COC(N)=N2)[C@H]2C[C@@H](O)CC[C@@H]2O3)c1 [Example 140, 3-((2′S,4R,4a′S,9a′R)-2-amino-2′-hydroxy-1′,2′,3′,4′,4a′,9a′-hexahydro-5H-spiro[oxazole-4,9′-xanthen]-7′-yl)-5-chlorobenzonitrile]	48.3	–
NC1=NC2(CO1)c1cc(NC(=O)c3ccc(Cl)cn3)ccc1OC1CCCCC12 (single isomer, unassigned) [Example 16, N-(2-amino-1′,2′,3′,4′,4a′,9a′-hexahydro-5H-spiro[oxazole-4,9′-xanthene]-7′-yl)-5-chloropicolinamide]	171	–
C[C@@]12CCO[C@@H]1[C@@]1(COC(N)=N1)c1cc(-c3cc(F)cc(Cl)c3)ccc1O2 [Example 266, (3aR,4′S,9aR)-7-(3-chloro-5-fluorophenyl)-3a-methyl-2,3,3a,9a-tetrahydro-5′H-spiro[furo[3,2-b]chromene-9,4′-oxazol]-2′-amine]	5290	–
NC1=NC2(CO1)c1cc(NC(=O)c3ccc(Br)cn3)ccc1OC1CCCCC12 (racemic) [Example 17, N-(2-amino-1′,2′,3′,4′,4a′,9a′-hexahydro-5H-spiro[oxazole-4,9′-xanthene]-7′-yl)-5-bromopicolinamide]	147	–
NC1=N[C@@]2(CS1)c1cc(-c3cncnc3)ccc1O[C@H]1CC[C@H](O)C[C@@H]12 [Example 146, (2′S,4R,4a′S,9a′R)-2-amino-7′-(pyrimidin-5-yl)-1′,2′,3′,4′,4a′,9a′-hexahydro-5H-spiro[thiazole-4,9′-xanthen]-2′-ol]	192	–
